Results taken from patent US10655144B2, “Nucleic acid construct with a p16 promoter that causes a prodrug converting enzyme to be expressed specifically in senescent cells” (Buck Institute for Research on Aging, priority 2012, dated 2020).

Columns and labels:
senescent cells [1] = test: Lifespan of wild type INK-ATTAC transgenic mice with senescent cells removed by weekly AP20187; assay type: in vivo; details: weekly treatment from 10-12 weeks of age; PBS control 21 months; FIG. 4
Description: (§1) Clearance of therapy-induced senescent cells improves age-sensitive traits and other health parameters in aged animals. […] INK-ATTAC transgenic animals from each of lineage 3 (TG3) and lineage 5 (TG5) were used in the experiments (see Baker et al., Nature, supra). INK-ATTAC transgenic mice were aged 10-12 weeks, and then cohorts of animals were treated with AP20187 or PBS (control) on a weekly basis from the start of treatment.

senescent cells [2] = test: Tissue and organ analyses after sacrifice (adipose cell diameter, muscle fiber diameter, skin thickness, cardiac performance, glomerulosclerosis) in AP20187-treated INK-ATTAC mice; assay type: in vivo, INK-ATTAC transgenic mice; details: treated vs untreated
Description: as §1
(§2) When the animals reached 18 months of age, several measures of health and lifespan were taken. Weight, fat mass, activity measurements (treadmill exercise tests to measure distance traveled and duration of exercise) were compared between untreated female mice (n=16) and AP20187-treated female mice (n=21), and compared between untreated male mice (n=19) and AP20187-treated male mice (n=21). Fat mass was greater in both treated females and males compared with the untreated groups (see FIG. 5). […] Treated and untreated mice (5-6 per group) were sacrificed, and adipose cell (AC) diameter, gastrocnemius muscle fiber diameter (μm), abdominal muscle fiber diameter (μm), dermal thickness (μm), subdermal adipose thickness (μm), cardiac performance (introduction of isoproterenol as an exogenous stress in animals prior to sacrifice), and extent of glomerulosclerosis were determined. Treated animals had greater adipose cell diameter (see FIG. 6); better cardiac performance (FIG. 7); and had less sclerotic glomeruli (see FIG. 8) than untreated animals. […] Removal of senescent cells in AP20187-treated animals prevented loss of adipose tissue, prevented loss of cardiac performance, and reduced the extent of glomerulosclerosis.

senescent cells [3] = test: Measures of health at 18 months of age (weight, fat mass, treadmill activity) in AP20187-treated INK-ATTAC mice; assay type: in vivo, INK-ATTAC transgenic mice
Description: as §1, §2

CC[C@H](C(=O)N1CCCC[C@H]1C(=O)O[C@H](CCc1ccc(OC)c(OC)c1)c1cccc(OCC(=O)NCC(CNC(=O)COc2cccc([C@@H](CCc3ccc(OC)c(OC)c3)OC(=O)[C@@H]3CCCCN3C(=O)[C@@H](CC)c3cc(OC)c(OC)c(OC)c3)c2)CN(C)C)c1)c1cc(OC)c(OC)c(OC)c1 [AP20187]
average lifespan (senescent cells [1]): approximately 26 months | cardiac performance (senescent cells [2]; isoproterenol as exogenous stress prior to sacrifice, FIG. 7): better | adipose cell (AC) diameter (senescent cells [2]; sacrificed mice, 5-6 per group, FIG. 6): greater | abdominal muscle fiber diameter (senescent cells [2]; sacrificed mice): No significant differences | dermal thickness (senescent cells [2]; sacrificed mice): No significant differences | gastrocnemius muscle fiber diameter (senescent cells [2]; sacrificed mice): No significant differences | subdermal adipose thickness (senescent cells [2]; sacrificed mice): No significant differences | extent of glomerulosclerosis (sclerotic glomeruli) (senescent cells [2]; sacrificed mice, FIG. 8): less | fat mass (senescent cells [3]; treated females and males each vs untreated group of same sex, FIG. 5): greater | activity measurements (treadmill exercise tests: distance traveled and duration of exercise) (senescent cells [3]; treated vs untreated animals): No statistically significant differences | weight (senescent cells [3]; treated vs untreated animals): No statistically significant differences
